Data on twelve compounds can be found in PubChem BioAssay AID328 (DTP/NCI, 2004).

The assay concerns BDF1 mice, P388 leukemia ip, median survival T/C. The assay is described as follows: NCI In Vivo Anticancer Drug Screen. Data for tumor model P388 Leukemia (intraperitoneal) in B6D2F1 (BDF1) mice. Conditions: endpoint: median survival time, higher = longer survival. Put shortly: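 Survival ratio, drug arm over vehicle arm, in mice with a transplanted tumour.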
The mark [1] stands for this setting: dose: 6.25 mg/kg/injection, schedule: Q01DX009 (ip), vehicle: saline.
Setting [2] is: dose: 12.5 mg/kg/injection, schedule: Q01DX009 (ip), vehicle: saline.
Where [3] appears, read: dose: 25.0 mg/kg/injection, schedule: Q01DX009 (ip), vehicle: saline.
Setting [4] is: dose: 25.0 mg/kg/injection, schedule: Q04DX003 (ip), vehicle: saline.
[5] abbreviates: dose: 50.0 mg/kg/injection, schedule: Q01DX009 (ip), vehicle: saline.
Where [6] appears, read: dose: 50.0 mg/kg/injection, schedule: Q04DX003 (ip), vehicle: saline.
[7] abbreviates: dose: 100.0 mg/kg/injection, schedule: Q04DX003 (ip), vehicle: saline.
[8] abbreviates: dose: 200.0 mg/kg/injection, schedule: Q01DX009 (ip), vehicle: saline.
[9] abbreviates: dose: 400.0 mg/kg/injection, schedule: Q04DX003 (ip), vehicle: saline.
Setting [10] is: dose: 100.0 mg/kg/injection, schedule: Q04DX003 (ip), vehicle: saline with Tween-80.
Setting [11] is: dose: 12.5 mg/kg/injection, schedule: Q04DX003 (ip), vehicle: saline.
Where [12] appears, read: dose: 100.0 mg/kg/injection, schedule: Q01DX009 (ip), vehicle: saline with Tween-80.
[13] abbreviates: dose: 25.0 mg/kg/injection, schedule: Q01DX009 (ip), vehicle: saline with Tween-80.
Where [14] appears, read: dose: 150.0 mg/kg/injection, schedule: Q04DX003 (ip), vehicle: saline.

“And” between values parts separate entries of the source, which are not always exact repeats. Equal entries are not always repeated. Toxic doses and inconclusive results are not listed.

Consider `CC(=O)Oc1ccc(OC(C)=O)c2c1CC1(C)OC1(C)C2` (configuration not stated), for which the T/C (dose: 1.56 mg/kg/injection, schedule: Q01DX009 (ip), vehicle: saline) was 96 % of control; the T/C (dose: 3.12 mg/kg/injection, schedule: Q01DX009 (ip), vehicle: saline) was 96 % of control; the T/C under setting [1] was 99 % of control; the T/C under setting [2] was 88 % of control; the T/C under setting [3] was 88 % of control; the T/C under setting [4] is 96 % of control. The T/C was 97 % of control and 109 % of control under setting [5]; 107 % of control under setting [6]; 96 % of control (dose: 100.0 mg/kg/injection, schedule: Q01DX009 (ip), vehicle: saline); 87 % of control under setting [7]; 94 % of control under setting [8]; 103 % of control (dose: 200.0 mg/kg/injection, schedule: Q04DX003 (ip), vehicle: saline). Further, the T/C is, setting by setting: (dose: 400.0 mg/kg/injection, schedule: Q01DX009 (ip), vehicle: saline) 90 % of control; under setting [9], 100 % of control.
Take `Cc1nc2ccccc2c(=O)n1C(C)(C)CCl`: the T/C is, setting by setting: under setting [10], 100 % of control; (dose: 200.0 mg/kg/injection, schedule: Q04DX003 (ip), vehicle: saline with Tween-80) 109 % of control.
As to `COc1cc2c3c(c1)C(O)CC[N+]3(C)CCC2` (configuration not stated), the T/C is, setting by setting: under setting [2], 100 % of control; under setting [11], 109 % of control; under setting [3], 110 % of control; under setting [4], 109 % of control; under setting [5], 100 % of control; under setting [6], 109 % of control.
As for `CC1(C)COCN1CN1COCC1(C)C`, the T/C by setting is: under setting [6], 150 % of control; under setting [7], 155 % of control.
Take `OP(=S)(c1ccccc1)c1ccccc1`: the T/C is 110 % of control (dose: 50.0 mg/kg/injection, schedule: Q01DX009 (ip), vehicle: other); 106 % of control (dose: 100.0 mg/kg/injection, schedule: Q01DX009 (ip), vehicle: other); 108 % of control (dose: 200.0 mg/kg/injection, schedule: Q01DX009 (ip), vehicle: other).
As to `COc1ccc(/C=N/n2c(=O)[nH]nc(C)c2=O)c(OC)c1OC`, the T/C runs as follows: under setting [12], 100 % of control; (dose: 200.0 mg/kg/injection, schedule: Q01DX009 (ip), vehicle: saline with Tween-80) 122 % of control; (dose: 400.0 mg/kg/injection, schedule: Q01DX009 (ip), vehicle: saline with Tween-80) 95 % of control.
In the case of `Cc1ccc(N=Cc2ccccc2O)cc1Cl`, the T/C is, setting by setting: (dose: 100.0 mg/kg/injection, schedule: Q01DX001 (ip), vehicle: saline with Tween-80) 109 % of control; (dose: 200.0 mg/kg/injection, schedule: Q01DX001 (ip), vehicle: saline with Tween-80) 100 % of control; (dose: 400.0 mg/kg/injection, schedule: Q01DX001 (ip), vehicle: saline with Tween-80) 100 % of control.
Turning to `CCS(=O)(=O)CCN1C(=O)CN=C(c2ccccc2F)c2cc(Cl)ccc21`, the T/C is 114 % of control (dose: 12.5 mg/kg/injection, schedule: Q01DX009 (ip), vehicle: saline with Tween-80); 96 % of control under setting [13]; 103 % of control and 123 % of control (dose: 50.0 mg/kg/injection, schedule: Q01DX009 (ip), vehicle: saline with Tween-80); 90 % of control and 107 % of control under setting [12].
Take `CCN(CC)c1cc(Cl)c(C=O)cc1Br`: the T/C (dose: 100.0 mg/kg/injection, schedule: Q04DX003 (ip), vehicle: Klucel (hydroxypropylcellulose) (HPC)) was 104 % of control; the T/C (dose: 200.0 mg/kg/injection, schedule: Q01DX009 (ip), vehicle: Klucel (hydroxypropylcellulose) (HPC)) was 100 % of control; the T/C (dose: 200.0 mg/kg/injection, schedule: Q04DX003 (ip), vehicle: Klucel (hydroxypropylcellulose) (HPC)) is 95 % of control; the T/C (dose: 400.0 mg/kg/injection, schedule: Q01DX009 (ip), vehicle: Klucel (hydroxypropylcellulose) (HPC)) was 95 % of control; the T/C (dose: 400.0 mg/kg/injection, schedule: Q04DX003 (ip), vehicle: Klucel (hydroxypropylcellulose) (HPC)) was 100 % of control.
Take `O=C1C=CC(=O)O1` (tested in a mixture with another compound): the T/C by setting is: (dose: 0.19 mg/kg/injection, schedule: Q01DX009 (ip), vehicle: Klucel (hydroxypropylcellulose) (HPC)) 100 % of control; (dose: 0.22 mg/kg/injection, schedule: Q01DX009 (ip), vehicle: Klucel (hydroxypropylcellulose) (HPC)) 95 % of control; (dose: 0.39 mg/kg/injection, schedule: Q01DX009 (ip), vehicle: Klucel (hydroxypropylcellulose) (HPC)) 118 % of control; (dose: 0.44 mg/kg/injection, schedule: Q01DX009 (ip), vehicle: Klucel (hydroxypropylcellulose) (HPC)) 90 % of control; (dose: 0.78 mg/kg/injection, schedule: Q01DX009 (ip), vehicle: Klucel (hydroxypropylcellulose) (HPC)) 90 % of control; (dose: 0.88 mg/kg/injection, schedule: Q01DX009 (ip), vehicle: Klucel (hydroxypropylcellulose) (HPC)) 95 % of control. For the same compound, the T/C by setting is: (dose: 1.3 mg/kg/injection, schedule: Q01DX009 (ip), vehicle: Klucel (hydroxypropylcellulose) (HPC)) 109 % of control; (dose: 1.56 mg/kg/injection, schedule: Q01DX009 (ip), vehicle: other) 95 % of control; (dose: 2.3 mg/kg/injection, schedule: Q04DX003 (ip), vehicle: Klucel (hydroxypropylcellulose) (HPC)) 91 % of control; (dose: 3.5 mg/kg/injection, schedule: Q04DX003 (ip), vehicle: Klucel (hydroxypropylcellulose) (HPC)) 116 % of control; (dose: 5.2 mg/kg/injection, schedule: Q04DX003 (ip), vehicle: Klucel (hydroxypropylcellulose) (HPC)) 100 % of control; (dose: 5.8 mg/kg/injection, schedule: Q04DX003 (ip), vehicle: Klucel (hydroxypropylcellulose) (HPC)) 100 % of control. Further, the T/C is, setting by setting: under setting [1], 88 % of control; (dose: 7.2 mg/kg/injection, schedule: Q04DX003 (ip), vehicle: Klucel (hydroxypropylcellulose) (HPC)) 95 % of control; (dose: 8.8 mg/kg/injection, schedule: Q04DX003 (ip), vehicle: Klucel (hydroxypropylcellulose) (HPC)) 100 % of control; under setting [2], 97 % of control; under setting [11], 104 % of control; (dose: 13.0 mg/kg/injection, schedule: Q04DX003 (ip), vehicle: Klucel (hydroxypropylcellulose) (HPC)) 104 % of control. The T/C runs as follows: under setting [4], 102 % of control; under setting [5], 102 % of control and 112 % of control and 113 % of control; under setting [6], 115 % of control and 122 % of control and 116 % of control; under setting [14], 122 % of control; under setting [8], 94 % of control [middle of 4 runs]; (dose: 300.0 mg/kg/injection, schedule: Q01DX009 (ip), vehicle: saline) 100 % of control. Besides, the T/C reads like this: (dose: 300.0 mg/kg/injection, schedule: Q04DX003 (ip), vehicle: saline) 108 % of control and 114 % of control; under setting [9], 121 % of control.
In the case of `CC1(C)N=C(N)N=C(N)N1c1ccc(CNC(=O)Nc2ccc(S(=O)(=O)F)cc2)c(Cl)c1`, the T/C is 176 % of control (dose: 16.5 mg/kg/injection, schedule: Q01DX009 (ip), vehicle: saline with Tween-80); 188 % of control under setting [13]; 185 % of control (dose: 37.5 mg/kg/injection, schedule: Q01DX009 (ip), vehicle: saline with Tween-80); 186 % of control (dose: 88.0 mg/kg/injection, schedule: Q04DX003 (ip), vehicle: saline with Tween-80); 157 % of control (dose: 132.0 mg/kg/injection, schedule: Q04DX003 (ip), vehicle: saline with Tween-80).
On to `c1nc(SSc2ncnc3nc[nH]c23)c2[nH]cnc2n1`, for which the T/C reads like this: (dose: 3.7 mg/kg/injection, schedule: Q04DX003 (ip), vehicle: saline) 87 % of control; (dose: 7.5 mg/kg/injection, schedule: Q04DX003 (ip), vehicle: saline) 91 % of control; (dose: 25.0 mg/kg/injection, schedule: Q04DX003 (ip), vehicle: saline with Tween-80) 100 % of control; under setting [6], 120 % of control; under setting [10], 111 % of control; under setting [7], 87 % of control. Besides, the T/C is 90 % of control under setting [14]; 90 % of control (dose: 225.0 mg/kg/injection, schedule: Q04DX003 (ip), vehicle: saline); 90 % of control (dose: 335.0 mg/kg/injection, schedule: Q04DX003 (ip), vehicle: saline).
